pIC50: −log10 of the molar value.
Assays:
AhR = biological target: T1, AhR (Homo sapiens, UniProt P35869); assay: Inhibition of AhR-mediated gene transcription (HEK-XRE 11.1 luciferase reporter, MeBIO induction); type: cell-based; settings: HEK-XRE 11.1 cells, MeBIO 0.1 nM, luminescence after 24 hours
T1 construct: One of the resultant clones was named HEK-XRE 11.1, and used in the reporter gene assays; endogenous in cells; host or cells: HEK-XRE 11.1 (HEK cells stably carrying the AhR-responsive luciferase reporter X4-4.27 and phRL-CMV)
T1 sequence (P35869 11-848): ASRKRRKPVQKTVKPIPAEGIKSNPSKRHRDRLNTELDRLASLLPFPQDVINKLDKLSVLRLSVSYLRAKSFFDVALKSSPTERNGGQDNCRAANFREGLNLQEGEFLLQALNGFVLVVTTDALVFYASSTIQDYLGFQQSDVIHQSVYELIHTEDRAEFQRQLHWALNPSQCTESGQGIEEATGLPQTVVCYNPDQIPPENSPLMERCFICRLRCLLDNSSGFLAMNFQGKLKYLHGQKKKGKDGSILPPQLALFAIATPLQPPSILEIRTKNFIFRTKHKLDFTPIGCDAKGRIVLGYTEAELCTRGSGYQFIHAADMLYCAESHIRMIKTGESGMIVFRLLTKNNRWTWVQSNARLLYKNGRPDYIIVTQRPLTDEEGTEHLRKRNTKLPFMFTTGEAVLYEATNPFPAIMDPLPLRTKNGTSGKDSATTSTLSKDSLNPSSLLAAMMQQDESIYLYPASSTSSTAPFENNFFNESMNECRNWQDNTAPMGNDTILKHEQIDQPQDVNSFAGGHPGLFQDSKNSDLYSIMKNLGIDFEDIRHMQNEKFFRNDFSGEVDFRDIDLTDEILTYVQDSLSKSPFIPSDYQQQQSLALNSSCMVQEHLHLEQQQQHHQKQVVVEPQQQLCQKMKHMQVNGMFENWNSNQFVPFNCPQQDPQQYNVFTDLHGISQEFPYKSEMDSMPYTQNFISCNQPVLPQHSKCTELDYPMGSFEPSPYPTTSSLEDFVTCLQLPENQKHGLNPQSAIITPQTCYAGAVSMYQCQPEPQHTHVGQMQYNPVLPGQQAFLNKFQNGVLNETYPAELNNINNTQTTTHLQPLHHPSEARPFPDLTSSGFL
How it was run: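 HEK-XRE 11.1 cells, stably carrying an AhR-responsive firefly luciferase reporter, were stimulated with 0.1 nM MeBIO and given compounds in 8-point 1:3 serial dilutions from 10 mM (stock-range figure) in duplicate. Luminescence was read after 24 h culture without Renilla normalisation. Dose-response curves were fitted by nonlinear regression.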

[1] = system: Human CD34+ cord blood (CB) cells; assay: CD34+ activity assessment (7-day expansion of pre-expanded CD34+ cells, flow cytometry); type: cell-based; settings: concentration at which compound/vehicle ratio of CD34+ cell number is >= 1.5, 7 days, with 35 nM UM0128171
[2] = system: Human CD34+ cord blood (CB) cells; assay: Assessment of engraftment and myeloid vs lymphoid lineage contribution in vivo; parameters: species or system NSG mice
[3] = system: Human CD34+ cord blood (CB) cells; assay: Assessment of cell composition in vitro (7-day culture of CB CD34+ cells); settings: for expansion of CD34+CD45RA+ cells: alone or in combination with UM171, 7 days, FIGS. 1B, 1C and 1D; for overall percentage of CD34+ cells in cultures: combined use with UM171, 7 days, FIG. 1A right panel and FIG. 1D; for percentage of Dendritic Cells and Mast Cells: combined use with UM171, compared to Compounds used alone, FIG. 1D

SMILES	pIC50 (AhR; Table 1)	EC1.5 ([1]; Table 1)	other results
Nc1c(C(=O)Nc2ccccc2)sc2nc3c(cc12)CCC3 [Compound 1001]	> 7.30	<100 nM	engraftment of expanded CB cells in the long term (12 and 20 weeks post transplantation) ([2]; CB cells expanded 7 days, alone or in combination with UM171, NSG mice bone marrow, FIG. 2A): engrafted with higher efficiency in the long term; contribution of lymphoid lineage ([2]; engrafted human CB cells in NSG mice, FIG. 2B): greatly increased; number of CD34+ cells in CB cultures ([3]; 7 days culture, compared to other conditions, FIG. 1A middle): increases the number of CD34+ cells; expansion of CD34+CD45RA+ cells [3]: favors the expansion of CD34+CD45RA+ cells; overall percentage of CD34+ cells in cultures [3]: increased the overall percentage of CD34+ cells; percentage of Dendritic Cells and Mast Cells [3]: increased the percentage of Dendritic Cells and Mast Cells
COc1ccc(NC(=O)c2sc3ncc(C)cc3c2N)cc1 [Compound 1114]	> 7.30	<100 nM	expansion of CD34+CD45RA+ cells [3]: favors the expansion of CD34+CD45RA+ cells; overall percentage of CD34+ cells in cultures [3]: increased the overall percentage of CD34+ cells; percentage of Dendritic Cells and Mast Cells [3]: increased the percentage of Dendritic Cells and Mast Cells
Nc1c(C(=O)Nc2cccc(Cl)c2)sc2ccc(C(F)(F)F)cc12 [Compound 1144]	> 7.30	>5000 nM	
Cc1cccc(NC(=O)c2sc3ccc(C(F)(F)F)cc3c2N)c1 [Compound 1145]	6.30 to 7.30	>5000 nM	
Nc1c(C(=O)Nc2ccc3c(c2)OCCO3)sc2ccc(C(F)(F)F)cc12 [Compound 1146]	6.30 to 7.30	>5000 nM	
CCOc1ccc(NC(=O)c2sc3ccc(C(F)(F)F)cc3c2N)cc1 [Compound 1147]	6.30 to 7.30	>5000 nM	
CSc1ccc(NC(=O)c2sc3ccc(C(F)(F)F)cc3c2N)cc1 [Compound 1148]	6.30 to 7.30	100 to 1000 nM	
Cc1cnc2sc(C(=O)Nc3ccc(OC(F)(F)F)cc3)c(N)c2c1 [Compound 1149]	> 7.30	100 to 1000 nM	
Cc1cnc2sc(C(=O)Nc3ccsc3)c(N)c2c1 [Compound 1150]	> 7.30	100 to 1000 nM	
Cc1ccc2sc(C(=O)Nc3ccc(OC(F)(F)F)cc3)c(N)c2c1 [Compound 1151]	6.30 to 7.30	>5000 nM	
Nc1c(C(=O)Nc2ccsc2)sc2ccc(C(F)(F)F)cc12 [Compound 1152]	> 7.30	>5000 nM	
Nc1c(C(=O)Nc2ccc(F)cc2)oc2ncc(C(F)(F)F)cc12 [Compound 1154]			pIC50 (AhR; Table 2): > 7.30; EC1.5 ([1]; Table 2): 100 to 1000 nM
